Laboratory results from PubChem BioAssay AID206 (DTP/NCI, 2004).
Several values for one entry are separate records, joined by “and”; a condition that tells them apart may be missing. Equal entries are not always repeated. Records with an inconclusive call do not appear.

System: nude mice, HT29 intrarenal xenograft, tumor weight T/C
Assay: NCI In Vivo Anticancer Drug Screen. Data for tumor model HT29;CX-1 Human Adenocarcinoma (MER+) (intrarenal inoculation) in NU/NU Swiss (nude) mice
Conditions: endpoint: mean tumor weight change, higher = larger tumour
Outline: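 Mice with transplanted tumors are dosed with compound while controls get vehicle only. Survival or tumor burden is then assessed per group, and the treated value is expressed relative to control.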

[1] = dose: 18.75 mg/kg/injection, schedule: Q04DX004 (sc), vehicle: Klucel (hydroxypropylcellulose) (HPC)
[2] = dose: 37.5 mg/kg/injection, schedule: Q04DX004 (sc), vehicle: Klucel (hydroxypropylcellulose) (HPC)
[3] = dose: 75.0 mg/kg/injection, schedule: Q04DX004 (sc), vehicle: saline with Tween-80
[4] = dose: 150.0 mg/kg/injection, schedule: Q04DX004 (sc), vehicle: saline with Tween-80
[5] = dose: 1200.0 mg/kg/injection, schedule: Q04DX004 (sc), vehicle: Klucel (hydroxypropylcellulose) (HPC)
[6] = dose: 600.0 mg/kg/injection, schedule: Q04DX004 (sc), vehicle: Klucel (hydroxypropylcellulose) (HPC)
[7] = dose: 150.0 mg/kg/injection, schedule: Q04DX004 (sc), vehicle: Klucel (hydroxypropylcellulose) (HPC)
[8] = dose: 300.0 mg/kg/injection, schedule: Q04DX004 (sc), vehicle: Klucel (hydroxypropylcellulose) (HPC)
[9] = dose: 300.0 mg/kg/injection, schedule: Q04DX004 (sc), vehicle: saline with Tween-80
[10] = dose: 600.0 mg/kg/injection, schedule: Q04DX004 (sc), vehicle: saline with Tween-80
[11] = dose: 2400.0 mg/kg/injection, schedule: Q04DX004 (sc), vehicle: saline with Tween-80
[12] = dose: 50.0 mg/kg/injection, schedule: Q04DX004 (sc), vehicle: saline with Tween-80
[13] = dose: 100.0 mg/kg/injection, schedule: Q04DX004 (sc), vehicle: saline with Tween-80
[14] = dose: 200.0 mg/kg/injection, schedule: Q04DX004 (sc), vehicle: saline with Tween-80
[15] = dose: 400.0 mg/kg/injection, schedule: Q04DX004 (sc), vehicle: saline with Tween-80

`C[C@@]12C(=O)OC(=O)[C@]1(C)[C@H]1CC[C@@H]2O1` was tested, and the T/C (dose: 1.25 mg/kg/injection, schedule: Q04DX004 (sc), vehicle: Klucel (hydroxypropylcellulose) (HPC)) was 87 % of control, the T/C (dose: 2.5 mg/kg/injection, schedule: Q04DX004 (sc), vehicle: Klucel (hydroxypropylcellulose) (HPC)) was 75 % of control and the T/C (dose: 5.0 mg/kg/injection, schedule: Q04DX004 (sc), vehicle: Klucel (hydroxypropylcellulose) (HPC)) was 89 % of control.
`COC12C(COC(N)=O)C3=C(C(=O)C(C)=C(N)C3=O)N1CC1C2N1C` (centres undefined) was tested, and the T/C (dose: 2.0 mg/kg/injection, schedule: Q01DX010 (sc), vehicle: saline) was 114 % of control and the T/C (dose: 4.0 mg/kg/injection, schedule: Q01DX010 (sc), vehicle: saline) was 8 % of control and 12 % of control.
With `COc1ccc(C(N)=O)cc1N=NN(C)C` the T/C [1] was 100 % of control, the T/C [2] was 31 % of control and 55 % of control and the T/C (dose: 75.0 mg/kg/injection, schedule: Q04DX004 (sc), vehicle: Klucel (hydroxypropylcellulose) (HPC)) was 45 % of control and 52 % of control and 70 % of control.
In the case of `C[C@]12C=CC(=O)C=C1CC[C@@H]1[C@@H]2[C@@H](O)C[C@@]2(C)[C@H]1CC[C@]2(O)C(=O)CO`, the T/C (dose: 12.5 mg/kg/injection, schedule: Q01DX010 (sc), vehicle: Klucel (hydroxypropylcellulose) (HPC)) is reported as 79 % of control, the T/C (dose: 25.0 mg/kg/injection, schedule: Q01DX010 (sc), vehicle: Klucel (hydroxypropylcellulose) (HPC)) is reported as 112 % of control and the T/C (dose: 50.0 mg/kg/injection, schedule: Q01DX010 (sc), vehicle: Klucel (hydroxypropylcellulose) (HPC)) is reported as 66 % of control. The T/C (dose: 100.0 mg/kg/injection, schedule: Q01DX010 (sc), vehicle: Klucel (hydroxypropylcellulose) (HPC)) was 83 % of control.
In the case of `CC1(CO)C(O)CCC2(C)C1CCC1CC3CC12CCC3(O)CO` (centres undefined), the T/C (dose: 50.0 mg/kg/injection, schedule: Q01DX010 (sc), vehicle: saline with Tween-80) is reported as 50 % of control and 65 % of control, the T/C (dose: 100.0 mg/kg/injection, schedule: Q01DX010 (sc), vehicle: saline with Tween-80) is reported as 69 % of control and the T/C (dose: 200.0 mg/kg/injection, schedule: Q01DX010 (sc), vehicle: saline with Tween-80) is reported as 65 % of control.
In the case of `CCOC1=Cc2c(oc3c(C(C)(C)C)cc(OCC)cc23)OC(C(C)(C)C)=C1`, the T/C (dose: 37.5 mg/kg/injection, schedule: Q04DX004 (sc), vehicle: saline with Tween-80) is reported as 79 % of control, the T/C [3] is reported as 87 % of control and the T/C [4] is reported as 256 % of control.
`Oc1c(Cl)cc(Cl)cc1C1N2CCCCC2C2c3cccn3-c3ccccc3N21` (centres undefined) was tested, and the T/C [5] was 111 % of control.
In the case of `O=C(Nc1ccc(N=C=S)cc1Cl)c1cc(Cl)cc(Cl)c1O`, the T/C (dose: 25.0 mg/kg/injection, schedule: Q04DX004 (sc), vehicle: Klucel (hydroxypropylcellulose) (HPC)) is reported as 123 % of control, the T/C (dose: 50.0 mg/kg/injection, schedule: Q04DX004 (sc), vehicle: Klucel (hydroxypropylcellulose) (HPC)) is reported as 102 % of control and the T/C (dose: 200.0 mg/kg/injection, schedule: Q04DX004 (sc), vehicle: Klucel (hydroxypropylcellulose) (HPC)) is reported as 56 % of control.
For `Clc1ccc(C2SC=Cc3ccccc32)cc1` (centres undefined), the T/C [6] was 48 % of control.
`CC12CC(C(=O)O)C3(O)CC(C)(C1)CC(C)(C2)C3` (centres undefined) (tested in a mixture with another compound) was tested, and the T/C [7] was 48 % of control, the T/C [8] was 54 % of control and the T/C [6] was 66 % of control. For the same molecule, the T/C [5] was 110 % of control.
`CC(=O)ON(C(C)=O)c1ccc(C(N)=O)cc1` was tested, and the T/C [3] was 83 % of control, the T/C [4] was 77 % of control and the T/C [9] was 60 % of control. The T/C [10] was 71 % of control and 78 % of control, the T/C (dose: 1200.0 mg/kg/injection, schedule: Q04DX004 (sc), vehicle: saline with Tween-80) was 103 % of control and the T/C [11] was 61 % of control.
With `NS(=O)(=O)OCCCCCCCOS(N)(=O)=O` the T/C (dose: 37.5 mg/kg/injection, schedule: Q04DX004 (ip), vehicle: saline with Tween-80) was 74 % of control, the T/C (dose: 75.0 mg/kg/injection, schedule: Q04DX004 (ip), vehicle: saline with Tween-80) was 102 % of control and the T/C (dose: 150.0 mg/kg/injection, schedule: Q04DX004 (ip), vehicle: saline with Tween-80) was 35 % of control.
`N=C(N)SCc1cccc2c(=O)cc(-c3ccccc3)oc12` was tested, and the T/C (dose: 150.0 mg/kg/injection, schedule: Q04DX004 (sc), vehicle: suspension in saline) was 110 % of control, the T/C (dose: 300.0 mg/kg/injection, schedule: Q04DX004 (sc), vehicle: suspension in saline) was 113 % of control and the T/C (dose: 600.0 mg/kg/injection, schedule: Q04DX004 (sc), vehicle: suspension in saline) was 106 % of control. The T/C (dose: 1200.0 mg/kg/injection, schedule: Q04DX004 (sc), vehicle: suspension in saline) was 69 % of control.
With `N/C=N/O` the T/C (dose: 400.0 mg/kg/injection, schedule: Q01DX010 (sc), vehicle: saline) was 111 % of control.
With `CC1=NN(c2cccc(S(=O)(=O)O)c2)C(=O)C1N=Nc1cc(Cl)cc(S(=O)(=O)O)c1O.CC1=NN(c2cccc(S(=O)(=O)O)c2)C(=O)C1N=Nc1cc(Cl)cc(S(=O)(=O)O)c1O.[Cr]` (centres undefined) the T/C (dose: 150.0 mg/kg/injection, schedule: Q04DX004 (sc), vehicle: saline) was 94 % of control, the T/C (dose: 300.0 mg/kg/injection, schedule: Q04DX004 (sc), vehicle: saline) was 121 % of control and the T/C (dose: 600.0 mg/kg/injection, schedule: Q04DX004 (sc), vehicle: saline) was 61 % of control.
In the case of `CCCCCc1cc(O)c2c(c1)OC(C)(C)[C@@H]1CCC(C)=C[C@@H]21`, the T/C (dose: 150.0 mg/kg/injection, schedule: Q04DX004 (sc), vehicle: other) is reported as 117 % of control, the T/C (dose: 300.0 mg/kg/injection, schedule: Q04DX004 (sc), vehicle: other) is reported as 76 % of control and the T/C (dose: 600.0 mg/kg/injection, schedule: Q04DX004 (sc), vehicle: other) is reported as 68 % of control. For the same molecule, the T/C (dose: 1200.0 mg/kg/injection, schedule: Q04DX004 (sc), vehicle: other) was 36 % of control.
In the case of `CC(CN1CC(=O)NC(=O)C1)N1CC(=O)NC(=O)C1` (centres undefined), the T/C [7] is reported as 85 % of control, the T/C [8] is reported as 40 % of control and the T/C [6] is reported as 46 % of control.
With `COc1cccc2c1C(=O)c1c(O)c3c(c(O)c1C2=O)C[C@@](O)(C(=O)CO)C[C@@H]3OC1CC(OC(C)=O)C(OC(C)=O)C(C)O1` (some centres undefined) the T/C (dose: 25.0 mg/kg/injection, schedule: Q01DX010 (sc), vehicle: distilled water + Tween-80) was 35 % of control.
With `Nc1nc(N)c2c(ccc3c2ccn3Cc2cccc([N+](=O)[O-])c2)n1` the T/C (dose: 6.25 mg/kg/injection, schedule: Q04DX004 (sc), vehicle: saline with Tween-80) was 97 % of control, the T/C (dose: 12.5 mg/kg/injection, schedule: Q04DX004 (sc), vehicle: saline with Tween-80) was 78 % of control and the T/C (dose: 25.0 mg/kg/injection, schedule: Q04DX004 (sc), vehicle: saline with Tween-80) was 57 % of control. The T/C [12] was 77 % of control, the T/C [3] was 157 % of control and the T/C [4] was 54 % of control.
With `C=CS(C=C)=NS(=O)(=O)c1ccc(C)cc1` the T/C [1] was 91 % of control and the T/C [2] was 60 % of control.
With `O=C1N=C(Oc2ccccc2)SC1=O` the T/C [12] was 40 % of control, the T/C [13] was 76 % of control and the T/C [14] was 59 % of control. The T/C [15] was 78 % of control.
With `CC(Cc1ccc(O)cc1)NCC(O)c1ccc(O)c(O)c1` (centres undefined) the T/C [13] was 106 % of control, the T/C [14] was 91 % of control and the T/C [15] was 89 % of control. For the same molecule, the T/C (dose: 800.0 mg/kg/injection, schedule: Q04DX004 (sc), vehicle: saline with Tween-80) was 80 % of control.
With `CC(=O)Nc1ccc(O)c(O)c1` the T/C [4] was 257 % of control, the T/C [9] was 56 % of control and the T/C [10] was 231 % of control. The T/C [11] was 110 % of control.
With `C(C#CCN1CCOCC1)#CCN1CCOCC1` the T/C [6] was 100 % of control, the T/C [5] was 72 % of control and the T/C (dose: 2400.0 mg/kg/injection, schedule: Q04DX004 (sc), vehicle: Klucel (hydroxypropylcellulose) (HPC)) was 68 % of control.
`Cc1ccc(S(=O)(=O)OCOS(=O)(=O)c2ccc(C)cc2)cc1` was tested, and the T/C [7] was 118 % of control, the T/C [8] was 100 % of control and the T/C [6] was 53 % of control. For the same molecule, the T/C [5] was 68 % of control.
`CN(C)CCCNc1c2ccccc2nc2cccc([N+](=O)[O-])c12` was tested, and the T/C (dose: 0.37 mg/kg/injection, schedule: Q04DX004 (sc), vehicle: saline) was 226 % of control.
For `C=C(C)[C@]12CC(C)C34OC(/C=C\C=C\CCCCCCCCC)(O[C@@H]1[C@@H]3[C@@H]1O[C@]1(CO)[C@@H](O)[C@]1(O)C(=O)C(C)=C[C@@H]41)O2` (some centres undefined), the T/C (dose: 0.38 mg/kg/injection, schedule: Q04DX004 (sc), vehicle: distilled water + alcohol) was 73 % of control, the T/C (dose: 0.75 mg/kg/injection, schedule: Q04DX004 (sc), vehicle: distilled water + alcohol) was 40 % of control and the T/C (dose: 1.5 mg/kg/injection, schedule: Q04DX004 (sc), vehicle: distilled water + alcohol) was 63 % of control. For the same molecule, the T/C (dose: 3.0 mg/kg/injection, schedule: Q04DX004 (sc), vehicle: distilled water + alcohol) was 37 % of control.
